Test results from ChEMBL document CHEMBL1201862, “PubChem BioAssay data set” (2004).
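The compound was tested at five concentrations on cells cultured in 96-well plates, with a 48-hour exposure period. GI50: concentration for 50% inhibition of growth.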 Activity calls are given as the source filed them. Rule as the data show it: active = GI50 up to about 1.1 µM and inactive = higher. Square brackets hold non-standard residues; d marks the D form. Peptide text beside a SMILES is read from it. pGlu = O=C1CC[C@@H](C(=O)O)N1; Thz = O=C(O)[C@@H]1CSCN1

Key:
Test in all cases: inhibition of tumour cell growth, NCI panel, 48 h
SF-539 = test system: SF-539
LOX IMVI = test system: LOX IMVI
TK-10 = test system: TK-10
HL-60 = test system: HL-60
UACC-257 = test system: UACC-257
DU-145 = test system: DU-145
EKVX = test system: EKVX
A549 = test system: A549
ACHN = test system: ACHN
HCT-15 = test system: HCT-15
HCT-116 = test system: HCT-116
NCI-H226 = test system: NCI-H226
IGROV-1 = test system: IGROV-1
BT-549 = test system: BT-549
KM12 = test system: KM12
786-0 = test system: 786-0
RXF 393 = test system: RXF 393
CCRF-CEM = test system: CCRF-CEM

Row | SMILES | GI50 (SF-539) | GI50 (LOX IMVI) | GI50 (TK-10) | GI50 (HL-60) | GI50 (UACC-257) | GI50 (DU-145) | GI50 (EKVX) | GI50 (A549) | GI50 (ACHN) | GI50 (HCT-15) | GI50 (HCT-116) | GI50 (NCI-H226) | GI50 (IGROV-1) | GI50 (BT-549) | GI50 (KM12) | GI50 (786-0) | GI50 (RXF 393) | GI50 (CCRF-CEM)
1 | C[C@]12OC(=O)[C@]3(O)CC[C@H]4[C@@H](C[C@@H](O)[C@@]5(Cl)CC=CC(=O)[C@]45C)[C@]45OCC6C(=O)O[C@@H]1C[C@@]6(C)[C@H](C4=O)[C@@]32O5 (some centres not stated) | 0.759 µM (active) | 0.951 µM (active) | 1.6 µM (inactive) | 0.356 µM (active) | 2.01 µM (inactive) | 3.82 µM (inactive) | 1.24 µM (inactive) | 3.37 µM (inactive) | 1.05 µM (active) | 1.46 µM | 0.656 µM (active) | 1.91 µM (inactive) | 1 µM (active) | 0.586 µM (active) | 2.15 µM (inactive) | 0.617 µM (active) | 0.283 µM (active) | 0.22 µM (active)
2 | O=C(NNC(=S)Nc1ccccc1)C12CC3CC(CC(C3)C1)C2 | 25.8 µM (inactive) | 11.2 µM (inactive) | 39.5 µM (inactive) | 7.01 µM (inactive) | 31.7 µM (inactive) | 28.6 µM (inactive) | 36 µM (inactive) | 19.9 µM (inactive) | 20.3 µM (inactive) | 7.28 µM | 13.6 µM (inactive) | 26.7 µM (inactive) | 25.1 µM (inactive) | 9.1 µM (inactive) | 43.2 µM (inactive) | 19.3 µM (inactive) | 27.7 µM (inactive) | 6.92 µM (inactive)
3 | O=C1/C(=C/C=C/c2ccccc2)CCC1CNc1ccc(Br)cc1 (configuration not stated) | > 100 µM (inactive) | > 100 µM (inactive) | 43.3 µM (inactive) | 17.1 µM (inactive) | > 100 µM (inactive) | 40.2 µM (inactive) | > 100 µM (inactive) | 53 µM (inactive) | 6.53 µM (inactive) | 4.86 µM | 37.9 µM (inactive) | > 100 µM (inactive) | 46.8 µM (inactive) | > 100 µM (inactive) | 15.2 µM (inactive) | 82.2 µM (inactive) | > 100 µM (inactive) | 22.7 µM (inactive)
4 | Cc1cc(C(O)CNC(C)CCn2cnc3c2c(=O)n(C)c(=O)n3C)ccc1O (configuration not stated) | > 100 µM (inactive) | > 100 µM (inactive) | > 100 µM (inactive) | – | > 100 µM (inactive) | > 100 µM (inactive) | > 100 µM (inactive) | > 100 µM (inactive) | > 100 µM (inactive) | > 100 µM | > 100 µM (inactive) | > 100 µM (inactive) | > 100 µM (inactive) | > 100 µM (inactive) | > 100 µM (inactive) | > 100 µM (inactive) | > 100 µM (inactive) | > 100 µM (inactive)
5 | Cc1cc(C)c(O)c(CN2CCN(C(C)C)CCN(C(C)C)CC2)c1 | 10.4 µM (inactive) | 16.1 µM (inactive) | 36.2 µM (inactive) | 11.7 µM (inactive) | 18.5 µM (inactive) | 85.7 µM (inactive) | 78.5 µM (inactive) | 32.3 µM (inactive) | 32.1 µM (inactive) | 46.7 µM | 7.41 µM (inactive) | 12 µM (inactive) | 2.26 µM (inactive) | 22 µM (inactive) | 17 µM (inactive) | 42.9 µM (inactive) | 16 µM (inactive) | 19.1 µM (inactive)
6 | Cc1n[nH]c(C(F)(F)F)c1/N=N/N1CCOCC1 | 14.2 µM (inactive) | 1.97 µM (inactive) | 12 µM (inactive) | – | 9.77 µM (inactive) | 4.59 µM (inactive) | 5.74 µM (inactive) | 8.89 µM (inactive) | 4.52 µM (inactive) | 8.81 µM | 1.94 µM (inactive) | 8.53 µM (inactive) | 10.7 µM (inactive) | 12.4 µM (inactive) | 6.37 µM (inactive) | 2.63 µM (inactive) | 12.5 µM (inactive) | 0.423 µM (active)
7 | CCOP(=O)(OCC)/C(C#N)=C/c1ncc[nH]1 | 8.32 µM (inactive) | > 100 µM (inactive) | – | > 100 µM (inactive) | > 100 µM (inactive) | > 100 µM (inactive) | > 100 µM (inactive) | > 100 µM (inactive) | > 100 µM (inactive) | > 10 µM | > 100 µM (inactive) | > 100 µM (inactive) | > 10 µM (inactive) | > 100 µM (inactive) | > 100 µM (inactive) | > 100 µM (inactive) | > 100 µM (inactive) | > 100 µM (inactive)
8 | CN(C(=O)Nc1ccc(Cl)c(Cl)c1)C1CCCC[C@@H]1N1CCCC1 (some centres not stated) | – | 30.3 µM (inactive) | 33.3 µM (inactive) | – | 18.8 µM (inactive) | 58.6 µM (inactive) | 47.5 µM (inactive) | 61.2 µM (inactive) | 52 µM (inactive) | 41.4 µM | 51.8 µM (inactive) | 0.092 µM (active) | 41.3 µM (inactive) | 22.4 µM (inactive) | 39.5 µM (inactive) | 48.6 µM (inactive) | 37.7 µM (inactive) | 30.5 µM (inactive)
9 | C[C@]12CC[C@H](O)CC1=CC[C@@H]1[C@@H]2CC[C@]2(C)C(=N/O)/C(=C/c3ccc([N+](=O)[O-])cc3)C[C@@H]12 | 4.09 µM (inactive) | 8.34 µM (inactive) | – | 1.91 µM (inactive) | 3.65 µM (inactive) | 6.73 µM (inactive) | 2.59 µM (inactive) | 0.782 µM (active) | 4.13 µM (inactive) | 4.78 µM | 3.93 µM (inactive) | 1.16 µM (inactive) | 7.48 µM (inactive) | 10.5 µM (inactive) | 0.841 µM (active) | 3.03 µM (inactive) | 3.6 µM (inactive) | 5.94 µM (inactive)
10 | CSc1nc(SC)c2c(C)cn(C3OC(C)C(O)C(O)C3O)c2n1 (configuration not stated) | 21 µM (inactive) | 31.8 µM (inactive) | 62.2 µM (inactive) | 46.2 µM (inactive) | – | 62.5 µM (inactive) | > 100 µM (inactive) | 74.5 µM (inactive) | 58.2 µM (inactive) | 74.1 µM | > 100 µM (inactive) | 66.7 µM (inactive) | 70 µM (inactive) | 39.2 µM (inactive) | 56.8 µM (inactive) | > 100 µM (inactive) | > 100 µM (inactive) | 45.7 µM (inactive)
11 | COC(=O)[C@@]1(NC(=O)C(CC(=O)OC(C)(C)C)NC(=O)OC(C)(C)C)C[C@H]1C (some centres not stated) | > 100 µM (inactive) | > 100 µM (inactive) | > 100 µM (inactive) | – | > 100 µM (inactive) | > 100 µM (inactive) | > 100 µM (inactive) | > 100 µM (inactive) | > 100 µM (inactive) | > 100 µM | > 100 µM (inactive) | > 100 µM (inactive) | > 100 µM (inactive) | > 100 µM (inactive) | > 100 µM (inactive) | > 100 µM (inactive) | > 100 µM (inactive) | > 100 µM (inactive)
12 | CCOc1cc(CCNC)c2c(ccc3ccc(OC)c(O)c32)c1OC | – | 11.5 µM (inactive) | 18 µM (inactive) | 15 µM (inactive) | 13.1 µM (inactive) | 15.2 µM (inactive) | 19.3 µM (inactive) | 19.3 µM (inactive) | 13.6 µM (inactive) | 17.5 µM | 10.4 µM (inactive) | 17.9 µM (inactive) | 13.9 µM (inactive) | 16.3 µM (inactive) | 11.9 µM (inactive) | 17.5 µM (inactive) | 15.7 µM (inactive) | 14.9 µM (inactive)
13 | O=C1CC[C@@H](C(=O)N2CSC[C@H]2C(=O)O)N1 [PIDOTIMOD] ([pGlu]-[Thz]-OH) | > 100 µM (inactive) | > 100 µM (inactive) | > 100 µM (inactive) | > 100 µM (inactive) | > 100 µM (inactive) | > 100 µM (inactive) | – | > 100 µM (inactive) | > 100 µM (inactive) | > 100 µM | – | > 100 µM (inactive) | > 100 µM (inactive) | > 100 µM (inactive) | > 100 µM (inactive) | > 100 µM (inactive) | > 100 µM (inactive) | > 100 µM (inactive)
14 | O=C(O)C[C@@H]1[C@@H](O)[C@@H](O)CN2C(=O)c3ccccc3[C@H]12 | > 100 µM (inactive) | > 100 µM (inactive) | > 100 µM (inactive) | – | > 100 µM (inactive) | > 100 µM (inactive) | > 100 µM (inactive) | > 100 µM (inactive) | > 100 µM (inactive) | > 100 µM | > 100 µM (inactive) | > 100 µM (inactive) | > 100 µM (inactive) | > 100 µM (inactive) | > 100 µM (inactive) | > 100 µM (inactive) | > 100 µM (inactive) | –
15 | CCC(=O)O[C@H]1CC[C@H]2[C@@H]3CCC4=C/C(=N/OC(=O)c5cccc6cc7ccccc7nc56)CC[C@]4(C)[C@H]3CC[C@]12C | 43.4 µM (inactive) | 33.4 µM (inactive) | – | 44.3 µM (inactive) | 63.4 µM (inactive) | > 100 µM (inactive) | 53.6 µM (inactive) | 71.1 µM (inactive) | > 100 µM (inactive) | 55.7 µM | 36.1 µM (inactive) | > 100 µM (inactive) | 11.5 µM (inactive) | 63.8 µM (inactive) | 40.7 µM (inactive) | > 100 µM (inactive) | > 100 µM (inactive) | 41.2 µM (inactive)
16 | CSc1c(C(=O)Nc2ccc(Cl)cc2)c(N)n(N)c(=O)c1C#N | > 100 µM (inactive) | 31.8 µM (inactive) | > 100 µM (inactive) | 78.7 µM (inactive) | > 100 µM (inactive) | > 100 µM (inactive) | > 100 µM (inactive) | > 100 µM (inactive) | – | 77.4 µM | 32.6 µM (inactive) | 89.7 µM (inactive) | – | > 100 µM (inactive) | 45.9 µM (inactive) | > 100 µM (inactive) | > 100 µM (inactive) | 42.4 µM (inactive)
